Reference: US7160989B2, “Antibodies that recognize and bind phosphorylated human androgen receptor and methods of using same” (New York University, priority 2003, dated 2007)

Legend:
phospho-MAPK (P-MAPK) = test: Immunoblot of phospho-MAPK in transfected 293 cells; assay type: cell-based, human; conditions: 293 cells treated with IGF-1; FIG. 4B
AR S213 phosphorylation = biological target: T1, AR S213 phosphorylation (Homo sapiens, UniProt P10275); test: Immunoblot of AR S213 phosphorylation in 293 cells transfected with wild type AR; assay type: cell-based
T1 sequence (P10275 1-920): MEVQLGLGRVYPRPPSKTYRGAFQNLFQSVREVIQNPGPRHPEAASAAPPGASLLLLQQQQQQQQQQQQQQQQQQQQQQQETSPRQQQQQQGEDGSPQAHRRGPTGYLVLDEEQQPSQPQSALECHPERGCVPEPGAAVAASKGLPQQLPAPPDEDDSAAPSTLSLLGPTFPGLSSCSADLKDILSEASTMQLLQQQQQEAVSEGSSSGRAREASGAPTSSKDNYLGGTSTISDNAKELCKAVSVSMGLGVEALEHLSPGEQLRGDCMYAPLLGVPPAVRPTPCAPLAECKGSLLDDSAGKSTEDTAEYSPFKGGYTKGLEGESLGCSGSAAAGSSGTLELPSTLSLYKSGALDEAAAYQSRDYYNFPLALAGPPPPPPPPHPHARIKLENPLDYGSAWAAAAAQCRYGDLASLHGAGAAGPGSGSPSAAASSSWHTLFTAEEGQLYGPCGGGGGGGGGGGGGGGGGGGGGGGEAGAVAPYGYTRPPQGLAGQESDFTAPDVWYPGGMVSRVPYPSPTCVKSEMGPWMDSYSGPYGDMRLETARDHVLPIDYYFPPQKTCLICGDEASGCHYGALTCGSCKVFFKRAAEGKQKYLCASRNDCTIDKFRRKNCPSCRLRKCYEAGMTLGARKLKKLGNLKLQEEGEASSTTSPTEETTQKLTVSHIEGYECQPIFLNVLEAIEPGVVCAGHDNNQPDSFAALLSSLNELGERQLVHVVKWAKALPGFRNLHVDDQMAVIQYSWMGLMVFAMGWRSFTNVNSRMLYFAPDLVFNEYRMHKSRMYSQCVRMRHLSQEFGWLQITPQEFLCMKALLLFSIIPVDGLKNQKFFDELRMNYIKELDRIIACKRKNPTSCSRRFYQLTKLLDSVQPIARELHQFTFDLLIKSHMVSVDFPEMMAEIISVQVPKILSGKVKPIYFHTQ

P-S213 AR = P-S213 AR (Homo sapiens, UniProt P10275); conditions: 293 cells, wild type AR, treated with R1881; FIG. 3B
Description: Preparation of nuclear and cytoplasmic lysates: Nuclear and cytoplasmic lysates were prepared according to (Lee et al., 1988). Cells (1×10^6 cells) were collected by centrifugation, swelled in a hypotonic buffer, and lysed by extruding the cells through a 25-gauge hypodermic needle. This homogenate was then centrifuged at 14,000 rpm for 5 min to pellet the nuclei, and the supernatant was saved as the cytoplasmic fraction. The proteins were extracted by re-suspension of the nuclear pellet in a high salt buffer and separation of debris by centrifugation. The resulting supernatant was retained as the nuclear fraction.
To assess the subcellular localization of AR-P-S213, fractionation studies were conducted in the presence of R1881.

Molecule | MAPK phosphorylation (phospho-MAPK (P-MAPK)) | AR phosphorylation with IGF-1 alone (AR S213 phosphorylation; 293 cells, IGF-1 alone 5 or 10 minutes or 2 hours, absence of R1881, FIG. 4B) | AR S213 phosphorylation at 10 nM (AR S213 phosphorylation) | AR S213 phosphorylation at lower levels (AR S213 phosphorylation) | AR S213 phosphorylation, compound alone (AR S213 phosphorylation) | AR phosphorylation by hormone (AR S213 phosphorylation) | Earliest time at which phosphorylation may occur (AR S213 phosphorylation) | Time at which phosphorylation above background is obvious (AR S213 phosphorylation) | Sub-cellular localization of P-S213 AR (P-S213 AR)
IGF-1: growth factor used to treat 293 cells; phosphorylates MAPK | phosphorylated | does not result in AR phosphorylation | – | – | – | – | – | – | –
C[C@]1(O)CC[C@H]2[C@@H]3CCC4=CC(=O)CCC4=C3C=C[C@@]21C [R1881] | – | – | robust phosphorylation | not at lower levels | phosphorylated | robust AR phosphorylation | ≥ 10 min | 60 min | predominantly nuclear
